Data published in patent publication US20210038579A1, “Treatment Of Patients With Classic Fabry Disease” (Amicus Therapeutics, Inc., priority 2018, published 2021).
Residue numbers refer to the chain shown, from its start. Where “and” joins values, the source holds several entries; their conditions need not be identical. Equal values may be shown once.

Columns and labels:
Test in all cases: HEK assay: α-Gal A activity in HEK-293 cell lysate with migalastat
Assay type in all cases: cell-based
[1] = target: T1, α-Gal A mutant form p.Arg356Trp (c.1066 C > T) (Homo sapiens, UniProt P06280, R356W)
T1 construct: expressed in transfected cells; host or cells: HEK-293
T1 sequence (P06280 32-429 R356W): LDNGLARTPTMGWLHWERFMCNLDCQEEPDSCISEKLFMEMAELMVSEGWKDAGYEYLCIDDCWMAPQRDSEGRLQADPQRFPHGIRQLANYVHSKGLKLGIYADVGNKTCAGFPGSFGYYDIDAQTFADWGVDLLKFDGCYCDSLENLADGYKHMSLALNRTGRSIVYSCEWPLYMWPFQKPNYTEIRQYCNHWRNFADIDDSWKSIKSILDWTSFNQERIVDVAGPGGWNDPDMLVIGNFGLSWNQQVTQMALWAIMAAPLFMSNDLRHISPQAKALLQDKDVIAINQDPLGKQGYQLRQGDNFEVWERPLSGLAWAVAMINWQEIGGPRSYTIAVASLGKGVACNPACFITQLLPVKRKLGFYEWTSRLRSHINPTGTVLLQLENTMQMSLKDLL
How it was run: (§1)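 Each disease-causing α-Gal A variant, expressed transiently in HEK-293 cells, was treated plus or minus migalastat from 17 nM up to 1 mM during 4 to 5 days; lysates were assayed for α-Gal A using 4-MU-α-Gal fluorescence or western blotting.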

[2] = target: T2, α-Gal A mutant form p.Asp322Glu (c.966 C > A) (Homo sapiens, UniProt P06280, D322E)
T2 construct: expressed in transfected cells; host or cells: HEK-293
T2 sequence (P06280 32-429 D322E): T1 sequence (P06280 32-429 R356W) with D291E, W325R
How it was run: as §1

[3] = target: T3, α-Gal A mutant form p.Cys174Arg (c.520 T > C) (Homo sapiens, UniProt P06280, C174R)
T3 construct: expressed in transfected cells; host or cells: HEK-293
T3 sequence (P06280 32-429 C174R): T1 sequence (P06280 32-429 R356W) with C143R, W325R
How it was run: as §1

[4] = target: T4, α-Gal A mutant form p.Gly183Asp (c.548 G > A) (Homo sapiens, UniProt P06280, G183D)
T4 construct: expressed in transfected cells; host or cells: HEK-293
T4 sequence (P06280 32-429 G183D): T1 sequence (P06280 32-429 R356W) with G152D, W325R
How it was run: as §1

[5] = target: T5, α-Gal A mutant form p.Phe 295Cys (c.884 T > G) (Homo sapiens, UniProt P06280, F295C)
T5 construct: expressed in transfected cells; host or cells: HEK-293
T5 sequence (P06280 32-429 F295C): T1 sequence (P06280 32-429 R356W) with F264C, W325R
How it was run: as §1

[6] = +10 μM migalastat, HEK-293 cell lysate, mean ± SEM, n = 20
[7] = HEK293, 10 μM migalastat minus baseline, read-out: Absolute increase at 10 μM (% WT)

Question: OC[C@H]1NC[C@H](O)[C@@H](O)[C@H]1O [migalastat] was tested. Which “α-Gal A activity at 10 μM (fold over baseline)” value ([1]; 10 μM migalastat) did it give?
Answer: Its value is 4.42 fold over baseline.

Question: What about the “+Migalastat α-Gal A activity” value [1, 6] of the same compound?
Answer: Its value is 15570 ± 830 nmol/mg/h.

Question: And the “+Migalastat α-Gal A activity % WT” value [1, 6]?
Answer: Its value is 49.1 ± 2.6 % WT.

Question: What about the activation at 10 µM [1, 7] of the same compound?
Answer: Its activation at 10 µM is 38.1%.

Question: What about the “α-Gal A activity at 10 μM (fold over baseline)” value ([2]; 10 μM migalastat) of the same compound?
Answer: The value was 3.98 fold over baseline.

Question: What about the “+Migalastat α-Gal A activity” value [2, 6] of the same compound?
Answer: Its value is 9554 ± 667 nmol/mg/h.

Question: And the “+Migalastat α-Gal A activity % WT” value [2, 6]?
Answer: The value was 26.8 ± 1.3 % WT.

Question: What about the activation at 10 µM [2, 7] of the same compound?
Answer: The activation at 10 µM was 20%.

Question: What about the “α-Gal A activity at 10 μM (fold over baseline)” value ([3]; 10 μM migalastat) of the same compound?
Answer: The value was 3.53 fold over baseline.

Question: What about the “+Migalastat α-Gal A activity” value [3, 6] of the same compound?
Answer: Its value is 16505 ± 393 nmol/mg/h.

Question: What about the “+Migalastat α-Gal A activity % WT” value [3, 6] of the same compound?
Answer: The value was 51.6 ± 2.0 % WT.

Question: What about the activation at 10 µM [3, 7] of the same compound?
Answer: Its activation at 10 µM is 37.4%.

Question: And the “α-Gal A activity at 10 μM (fold over baseline)” value ([4]; 10 μM migalastat)?
Answer: Its value is 29.31 fold over baseline.

Question: And the “+Migalastat α-Gal A activity” value [4, 6]?
Answer: The value was 6074 ± 212 nmol/mg/h.

Question: What about the “+Migalastat α-Gal A activity % WT” value [4, 6] of the same compound?
Answer: Its value is 19.1 ± 1.0 % WT and 19.1 ± 10 % WT.

Question: What about the activation at 10 µM [4, 7] of the same compound?
Answer: The activation at 10 µM was 18.4%.

Question: What about the “α-Gal A activity at 10 μM (fold over baseline)” value ([5]; 10 μM migalastat) of the same compound?
Answer: The value was 4.22 fold over baseline.

Question: And the “+Migalastat α-Gal A activity” value [5, 6]?
Answer: Its value is 5051 ± 190 nmol/mg/h.

Question: And the “+Migalastat α-Gal A activity % WT” value [5, 6]?
Answer: Its value is 14.5 ± 0.6 % WT.

Question: What about the activation at 10 µM [5, 7] of the same compound?
Answer: The activation at 10 µM was 11.1%.
